According to PubChem BioAssay AID1963864 (Molecular Pharmacology Branch, DTP, NCI, 2024):

System: KRAS PDC multicell spheroid viability
Test: Anticancer human tumor 521955-158-R6-J3-PDC patient-derived pancreatic carcinoma cell line growth inhibition [KRAS2]
Conditions: for viability, T/C: stronger effect = lower value
In short: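 KRAS-mutant tumor cells were grown as spheroids with HUVEC endothelial cells and human MSCs as stroma. Targeted agents were tested alone and with KRAS pathway inhibitors. Doses started at or near clinical Cmax, or 10 microM, descending half-log.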

[1] = curve of first compound, second compound 0.1 µM
[2] = curve of first compound, second compound 0.316 µM
[3] = curve of first compound, second compound 1 µM
[4] = curve of first compound, second compound 3.16 µM
[5] = curve of first compound, second compound 10 µM
[6] = second compound 0.1 µM, first compound 0.00316 µM
[7] = second compound 0.1 µM, first compound 0.01 µM
[8] = second compound 0.1 µM, first compound 0.0316 µM
[9] = second compound 0.1 µM, first compound 0.1 µM
[10] = second compound 0.316 µM, first compound 0.00316 µM
[11] = second compound 0.316 µM, first compound 0.01 µM
[12] = second compound 0.316 µM, first compound 0.0316 µM
[13] = second compound 0.316 µM, first compound 0.1 µM
[14] = second compound 1 µM, first compound 0.00316 µM
[15] = second compound 1 µM, first compound 0.01 µM
[16] = second compound 1 µM, first compound 0.0316 µM
[17] = second compound 1 µM, first compound 0.1 µM
[18] = second compound 3.16 µM, first compound 0.00316 µM
[19] = second compound 3.16 µM, first compound 0.01 µM
[20] = second compound 3.16 µM, first compound 0.0316 µM
[21] = second compound 3.16 µM, first compound 0.1 µM
[22] = second compound 10 µM, first compound 0.00316 µM
[23] = second compound 10 µM, first compound 0.01 µM
[24] = second compound 10 µM, first compound 0.0316 µM
[25] = second compound 10 µM, first compound 0.1 µM
[26] = second compound 0.1 µM, first compound 0.316 µM
[27] = second compound 0.1 µM, first compound 1 µM
[28] = second compound 0.316 µM, first compound 0.316 µM
[29] = second compound 0.316 µM, first compound 1 µM
[30] = second compound 1 µM, first compound 0.316 µM
[31] = second compound 1 µM, first compound 1 µM
[32] = second compound 3.16 µM, first compound 0.316 µM
[33] = second compound 3.16 µM, first compound 1 µM
[34] = second compound 10 µM, first compound 0.316 µM
[35] = second compound 10 µM, first compound 1 µM
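Also: drug exposure lasted seven days.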
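For viability, T/C in this document: 100% = DMSO vehicle wells and lower means fewer viable cells.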

Compound	IC50 [1] [nM]	IC50 [2] [nM]	IC50 [3] [nM]	IC50 [4] [nM]	IC50 [5] [nM]	viability, T/C [7] [%]	viability, T/C [8] [%]	viability, T/C [9] [%]	viability, T/C [11] [%]	viability, T/C [12] [%]	viability, T/C [13] [%]	viability, T/C [15] [%]	viability, T/C [16] [%]	viability, T/C [17] [%]	viability, T/C [19] [%]	viability, T/C [20] [%]	viability, T/C [21] [%]	viability, T/C [23] [%]	viability, T/C [24] [%]	viability, T/C [25] [%]	other results
CN(C)C/C=C/C(=O)Nc1cc2c(Nc3ccc(F)c(Cl)c3)ncnc2cc1O[C@H]1CCOC1 + COc1cc2nc(C)nc(NC(C)c3cc(N)cc(C(F)(F)F)c3)c2cc1OC1CCOC1	> 100	> 100	> 100	2.84	3.2	61.2	54	55.5	65	54.7	53.2	61.8	56.1	48.6	51.1	44.4	45.5	26.2	32.8	25.4	viability, T/C (second compound 0.1 µM, first compound 0.000316 µM): 89.3%; viability, T/C (second compound 0.1 µM, first compound 0.001 µM): 78.3%; viability, T/C [6]: 72.3%; viability, T/C (second compound 0.316 µM, first compound 0.000316 µM): 93%; viability, T/C (second compound 0.316 µM, first compound 0.001 µM): 106%; viability, T/C [10]: 78.5%; viability, T/C (second compound 1 µM, first compound 0.000316 µM): 105%; viability, T/C (second compound 1 µM, first compound 0.001 µM): 100%; viability, T/C [14]: 89.5%; viability, T/C (second compound 3.16 µM, first compound 0.000316 µM): 84%; viability, T/C (second compound 3.16 µM, first compound 0.001 µM): 78.2%; viability, T/C [18]: 46.9%; viability, T/C (second compound 10 µM, first compound 0.000316 µM): 59.8%; viability, T/C (second compound 10 µM, first compound 0.001 µM): 54.9%; viability, T/C [22]: 50.2%
CCN1CCN(Cc2ccc(Nc3ncc(F)c(-c4cc(F)c5nc(C)n(C(C)C)c5c4)n3)nc2)CC1 + C=CC(=O)N1CCN(c2nc(=O)n(-c3c(C)ccnc3C(C)C)c3nc(-c4c(O)cccc4F)c(F)cc23)C(C)C1	> 1000	> 1000	> 1000	> 1000	> 1000	88.8	86.1	74.2	90.6	78.7	86	91.9	111	94.3	89.4	101	90.3	73.2	75.3	70.4	viability, T/C [6]: 102%; viability, T/C [26]: 83.6%; viability, T/C [27]: 97.6%; viability, T/C [10]: 95.8%; viability, T/C [28]: 88.2%; viability, T/C [29]: 88.5%; viability, T/C [14]: 111%; viability, T/C [30]: 85.6%; viability, T/C [31]: 125%; viability, T/C [18]: 87.6%; viability, T/C [32]: 109%; viability, T/C [33]: 114%; viability, T/C [22]: 63.2%; viability, T/C [34]: 85.5%; viability, T/C [35]: 114%
CC(=O)OC12COC1CC(O)C1(C)C(=O)C(O)C3=C(C)C(OC(=O)C(O)C(NC(=O)OC(C)(C)C)c4ccccc4)CC(O)(C(OC(=O)c4ccccc4)C21)C3(C)C (stereo not given) + C=CC(=O)N1CCN(c2nc(=O)n(-c3c(C)ccnc3C(C)C)c3nc(-c4c(O)cccc4F)c(F)cc23)C(C)C1	> 3160	> 3160	> 3160	> 3160	> 3160	86.2	74.1	77.7	86	82.5	74.4	90.6	87	81.4	97.3	88.1	90.3	98.9	92.2	90.1	viability, T/C [26]: 94.7%; viability, T/C [27]: 94.3%; viability, T/C (second compound 0.1 µM, first compound 3.16 µM): 114%; viability, T/C [28]: 77.1%; viability, T/C [29]: 88.4%; viability, T/C (second compound 0.316 µM, first compound 3.16 µM): 113%; viability, T/C [30]: 62.5%; viability, T/C [31]: 65.6%; viability, T/C (second compound 1 µM, first compound 3.16 µM): 69%; viability, T/C [32]: 101%; viability, T/C [33]: 98.4%; viability, T/C (second compound 3.16 µM, first compound 3.16 µM): 104%; viability, T/C [34]: 73.2%; viability, T/C [35]: 86.8%; viability, T/C (second compound 10 µM, first compound 3.16 µM): 76.8%
C=CC(=O)N1CCN(c2nc(=O)n(-c3c(C)ccnc3C(C)C)c3nc(-c4c(O)cccc4F)c(F)cc23)C(C)C1 (stereo not given)	–	–	–	–	–	–	–	–	–	–	–	–	–	–	–	–	–	–	–	–	viability, T/C (compound 0.1 µM): 94.8% [middle of 16 runs]; viability, T/C (compound 0.316 µM): 97.2% [middle of 16 runs]; IC50 (compound alone, run of 08/19/2021): > 10000 nM; IC50 (compound alone, run of 08/26/2021): > 10000 nM; IC50 (compound alone, run of 09/02/2021): > 10000 nM
